For assay [1], the system named is A-site RNA (RNA, rRNA) CGGCGUCACACCUCGGGGUGAAGUCGCCG
Put plainly: fluorescent intercalator displacement (FID). Particulars: 100 mM KCl, 4 mM MgCl2, 20 mM Tris-HCl pH 7.0, TO-PRO displaced, RNA 0.5 μM.

In assay [2] the test system is NEAT1_2 TH (5' biotin-TEG, immobilized) (RNA, triplex) AGGUGUUUCUUUUACUGAGUGCAGCCC/UGGCCGCACUCAGGUUUUGCUUUUCACCUUCCCAUCUGUGAAAGAGUGAGCAGGAAAAAGCAAAA
Put plainly: grating-coupled interferometry (waveRAPID). Particulars: 150 mM NaCl, 4 mM MgCl2; 10 mM HEPES pH 7.4, 0.005% Tween-20, 1% DMSO, 25°C; tested at 10 μM.

For assay [3], the system named is NEAT1_2 TH (RNA, triplex) AGGUGUUUCUUUUACUGAGUGCAGCCC/UGGCCGCACUCAGGUUUUGCUUUUCACCUUCCCAUCUGUGAAAGAGUGAGCAGGAAAAAGCAAAA
Put plainly: fluorescent intercalator displacement (FID) screen. Particulars: 100 mM KCl, 4 mM MgCl2, 20 mM Tris-HCl pH 7.0, 2% DMSO, TO-PRO displaced, RNA 0.25 μM, hit at 10 μM.

Assay [4] shares this test system. Kind of assay: fluorescent intercalator displacement (FID). Particulars: 100 mM KCl, 4 mM MgCl2, 20 mM Tris-HCl pH 7.0, TO-PRO displaced, RNA 0.5 μM.
Assay [5] has the same test system. Put plainly: fluorescence increase on binding. Particulars: 100 mM KCl, 4 mM MgCl2; 20 mM Tris-HCl pH 7.0; RNA 0.5 μM, equimolar dye; 220.7-fold fluorescence increase.
In assay [6] the test system is A-site RNA (RNA, rRNA) CGGCGUCACACCUCGGGGUGAAGUCGCCG
Put plainly: fluorescence increase on binding. Particulars: 100 mM KCl, 4 mM MgCl2; 20 mM Tris-HCl pH 7.0; RNA 0.5 μM, equimolar dye; 116.3-fold fluorescence increase.

The subject of assay [7] is fragment 1 (f1), biotinylated (RNA, single strand) AGGUGUUUCUUUUACUGAGUGCAGCCC
Kind of assay: grating-coupled interferometry (waveRAPID). Particulars: 150 mM NaCl, 4 mM MgCl2; 10 mM HEPES pH 7.4, 0.005% Tween-20, 1% DMSO, 25°C; tested at 10 μM.

Assay [8] relates to fragment 2 (f2), biotinylated (RNA, other) UGGCCGCACUCAGGUUUUGCUUUUCACCUUCCCAUCUGUGAAAGAGUGAGCAGGAAAAAGCAAAA
Kind of assay: grating-coupled interferometry (waveRAPID). Particulars: 150 mM NaCl, 4 mM MgCl2; 10 mM HEPES pH 7.4, 0.005% Tween-20, 1% DMSO, 25°C; tested at 10 μM.

In the case of `CC(=O)NC[C@H]1CN(c2ccc(N3CCOCC3)c(F)c2)C(=O)O1`, the binding result in assay [1] (no effect at 50 μM) is “no”.

For `CC(=O)c1c(O)c(C)c(O)c(Cc2c(O)c3c(c(C(=O)/C=C/c4ccccc4)c2O)OC(C)(C)C=C3)c1O`, the binding entry in assay [2] is recorded as “no”; in assay [3] (not confirmed by GCI), “yes”.

As to `CC1(C)CC(Oc2ccc(-c3ccc(-c4cn[nH]c4)cc3O)nn2)CC(C)(C)N1`, the binding result in assay [4] (at higher concentration) and in assay [1] (at higher concentration) was “weak” in each case.

As to `CN[C@@H]1[C@@H](O)[C@@H](O[C@@H]2[C@@H](O)[C@H](O[C@H]3O[C@H]([C@@H](C)O)[C@@H](O)[C@H](O)[C@H]3N)[C@@H](N)C[C@H]2N)OC[C@]1(C)O`, the binding entry in assay [4] (fluorescence to 0.72, higher concentration only) is on record as “weak”; in assay [1] (both concentrations) it was “yes”.

For the molecule `CNc1ncc(CN2CCCC(c3nc(-c4cccs4)cc(=O)[nH]3)C2)cn1` (centres unmarked), the binding result in assay [4] (two concentrations) and in assay [1] (two concentrations) was “no” throughout.

`COc1ccc(Br)cc1S(=O)(=O)NC(=O)/C=C/c1ccccc1Cc1ccc2ccccc2c1`: the binding entry in assay [3] is “yes”.

On to `C[n+]1c(C=C2C=CN(CCC[N+](C)(C)C)c3ccccc32)sc2ccccc21`, for which the binding result in assay [5] and in assay [6] was “yes” throughout.

On to `Cc1cc(O)c2c(c1)C(=O)c1cc(O)cc(O)c1C2=O`, for which the results for the binding entry in assay [7], in assay [8] and in assay [3] were “no”, “no” and “yes”, respectively.

Consider `NCCOc1cc(C(=O)Nc2cc(OCCN)c3ccccc3n2)nc(C(=O)Nc2cc(OCCN)c3ccccc3n2)c1`, for which the binding entry in assay [3] was “yes”.

As for `NC[C@@H]1O[C@H](O[C@H]2[C@@H](O)[C@H](O[C@@H]3[C@@H](O)[C@H](N)C[C@H](N)[C@H]3O[C@H]3O[C@H](CO)[C@@H](O)[C@H](O)[C@H]3N)O[C@@H]2CO)[C@H](N)[C@@H](O)[C@@H]1O`, the binding result was “yes” in assay [4] (fluorescence 0.61 at 50, 0.34 at 500 μM); “yes” in assay [1] (fluorescence to 0.08 at 50 and 500 μM).

With `O=C(N[C@H](CO)[C@H](O)c1ccc([N+](=O)[O-])cc1)C(Cl)Cl`, the binding entry in assay [2], in assay [4] (no effect at 50 μM) and in assay [1] (no effect at 50 μM) was “no” each time.

In the case of `O=C(O)C1=CC(=C(c2ccc(O)c(C(=O)O)c2)c2ccc(O)c(C(=O)O)c2)C=CC1=O`, the binding entry in assay [3] is on record as “yes”.

In the case of `O=C1Nc2ccc(I)cc2/C1=C/c1cc(Br)c(O)c(Br)c1`, in assay [3], the binding result is “yes”.

For the molecule `O=C1c2c(O)ccc(O)c2C(=O)c2c(NCCNCCO)ccc(NCCNCCO)c21`, the binding entry in assay [3] was “yes”.

Take `O=c1c(O)c(-c2cc(O)c(O)c(O)c2)oc2cc(O)cc(O)c12`: the binding entry in assay [3] is “yes”.

With `O=c1c(O)c(-c2ccc(O)c(O)c2)oc2cc(O)cc(O)c12`, the binding result in assay [3] is on record as “yes”.
